In patent publication EP1613294B1, “PEPTIDES AND DERIVATIVES THEREOF AS INHIBITORS OF OXIDATIVE DAMAGE OF THE SKIN” (Bottega Verde S.r.l., priority 2003, dated 2004):
Peptide text beside a SMILES is read from it.

Columns and labels:
[1] = Antioxidant activity, fluorimetric assay of R-Phicoerytrine (RPE) oxidation by AAPH-generated peroxyl radicals; type: biochemical; conditions: substance at 25 µM; average ± S.D of 4 determination
Experimental: The amount of RPE oxidation is determined by fluorimetric analysis and the results are expressed as Trolox equivalents (reference compound).
(the hydrophilic analogue of vitamin E).
The values are the average ± S.D of 4 determination

[2] = HNE quenching activity in homogeneous phase (HNE consumption by HPLC); type: biochemical; conditions: 200 µM HNE, 37°C, average ± S.D of 4 determinations; for RESIDUAL HNE (%) 1 hr of incubation: phosphate buffer 10 mM pH 7.4, 1 hr; for RESIDUAL HNE (%) 24 hrs of incubation: phosphate buffer 10 mM pH 7.4, 24 hrs
Source text: 4-hydroxy-trans-nonenal (HNE) was used throughout the study, as the prototype of α,β-unsaturated aldehydes since it represents the main oxidative degradation product of ω-6 polyunsaturated fatty acids, such as arachidonic and linoleic acids, and it is formed in large amount in the skin under different patho-physiological conditions, such as intrinsic and photo-induced skin aging [Tanaka N, Arch Dermatol Res, 293, 363-367, 2001].
A homogeneous phase model was first used to evaluate the ability of H-His-Tyr-OH and H-Tyr-His-OH to react and deactivate the cytotoxic agent HNE (quenching activity). In particular, the di-peptides were incubated at 37°C in a phosphate buffer, 10 mM pH 7.4, in the presence of 200 µM HNE. HNE consumption was determined after 1 hour and 24 hours of incubation by HPLC analysis, under the following experimental conditions: HP1050 (Hewlett Packard, Milano, Italy) equipped with a quaternary pump, self-sampling, on-line degasser, UV/VIS photodiode detector. The separations were performed by means of a Supelco LC18 column (25 cm x 4.6 mm i.d.; particle size 5 µm) and an isocratic elution system: 60% of phase A (H2O/CH3CN/HCOOH 90/1.0/0.] v/v/v) and 40% of phase B (H2O/CH3CN 10/90 v/v/v).
The values are expressed as the average ± S.D of 4 determinations.

[3] = tested on: keratinocytes (NCTC 2544 human cell line); experiment: Cytoprotection of keratinocytes exposed to UVB and HNE (morphology, cell viability by calcein assay); type: cell-based; conditions: for protective effect (morphological analyses and recovery in cell viability): added to incubation medium concomitant to HNE and UVB exposure, result in words
Experimental: The experimental model involves the exposure of the cellular mono-layer to the minimal UVB erythematal dose, MED=50 mJ/cm^2, (Vilber Lourmat VLX-3W radiometer equipped with a UVB probe at 312 nm)and, 4 hours of post-incubation, to the HNE insult (70 nmoles/mg protein).
The combination of physical (UVB) and chemical (HNE) stress is used to simulate the conditions of cellular damage of the skin during the cutaneous intrinsic and photo-induced aging process.

[4] = tested on: human kcratinocytcs cell line (NCTC 2544 human cell line); experiment: Antioxidant cell protection of keratinocytes against AAPH-induced oxidative damage (MTT, morphology, lipid peroxidation with BODIPY 581/591); type: cell-based; conditions: 6 hours exposure to 40 mM AAPH
Experimental: The H-His-Tyr-OH and H-Tyr-His-OH antioxidant activity was subsequently devaluated in a cellular model using human kcratinocytcs cell line (NCTC 2544 human cell line, Flow Laboratories, Irvine, UK), subjected to oxidative damage induced by a flux of peroxyl radicals generated by the radical initiator 2,2'-azobis([…]) dihydrochloride (AAPH). The following parameters were evaluated as markers of cellular damage: mitochondrial functionality as an index of cell viability (MTT assay), cellular morphology (phase contrast microscopic examinations), and lipid peroxidation, using 4,4-difluoro-5-(4-phenyl-1,3-butadienyl)-4-bora-3a,4a-diazo-s-indacene-3-undecanoic acid(BODIPY 581/591) as membrane fluorescent probe [Pap et al, FEBS Lett. 453:278-282, 1999]. A dramatic cytotoxic effect was observed after 6 hours exposure to 40 mM AAPH(fig.5).
The addition of H-His-Tyr-OH to the incubation medium causes a significant and dose-dependent cell protection, which is significant for all the parameters considered, already at 0.5 mM, with a total protection at 10 mM (fig. 5).

[5] = Copper (II) chelation by spectrophotometric analysis; type: physicochemical; conditions: phosphate buffer (1 mM), 37°C, 1 mM copper sulphate (1:1 molar ratio); free copper (II) band at 800 nm disappears
Experimental: For this purpose, first we evaluated the ability of H-His-Tyr-OH and H-Tyr-His-OH to chelate copper (II) by spectro-photometric analysis. The peptides are dissolved in phosphate buffer (1 mM) and incubated at 37°C with 1 mM copper sulphate (1:1 molar ratio).

| Structure (SMILES) | TROLOX equivalent [1] [µM] | RESIDUAL HNE (%) 1 hr of incubation [2] [%] | RESIDUAL HNE (%) 24 hrs of incubation [2] [%] | EC100 ([3]; Homo sapiens, NCTC-2544, light or radiation study, UVB 50 mJ/cm^2 + HNE 70 nmoles/mg protein, determined 6 hours after the addition of HNE, read-out: concentration at which cells are completely protected (morphological analysis)) [µM] | minimal effective concentration ([3]; Homo sapiens, NCTC-2544, light or radiation study, UVB 50 mJ/cm^2 + HNE 70 nmoles/mg protein, determined 6 hours after the addition of HNE, read-out: concentration at which the cytoprotective activity is already significant) [µM] | protective effect (morphological analyses and recovery in cell viability) [3] | minimal effective concentration ([4]; mitochondrial functionality, morphology, lipid peroxidation, read-out: concentration at which cell protection is already significant for all the parameters considered) [µM] | EC100 ([4]; read-out: concentration giving total protection) [µM] | λmax of the absorption band of the peptide-copper(II) complex [5] [nm] |
| --- | --- | --- | --- | --- | --- | --- | --- | --- | --- |
| NCCC(=O)N[C@@H](Cc1cnc[nH]1)C(=O)O [Carnosine, reference compound] | 4.94 ± 0.3 |  |  |  |  |  |  |  |  |
| Cc1c(C)c2c(c(C)c1O)CCC(C)(C(=O)O)O2 (stereo not drawn) [Trolox, reference compound] | 25 |  |  |  |  |  |  |  |  |
| NC(Cc1cnc[nH]1)C(=O)NC(Cc1ccc(O)cc1)C(=O)O (stereo not drawn) [H-His-Tyr-OH] (H-His-Tyr-OH; configuration not given here) | 16.90 ± 0.54 | 80.16 ± 7.57 | 15.41 ± 0.49 | 20000 | 2000 | dose-dependent protective effect | 500 | 10000 | 650 |
| NC(Cc1ccc(O)cc1)C(=O)NC(Cc1cnc[nH]1)C(=O)O (stereo not drawn) [H-Tyr-His-OH] (H-Tyr-His-OH; configuration not given here) | 17.28 ± 0.89 | 85.31 ± 6.29 | 20.02 ± 4.09 |  |  | dose-dependent protective effect |  |  | 600 |
| N=C(N)NN [Amino guanidine, reference compound] |  | 95.31 ± 0.08 | 72.04 ± 3.97 |  |  |  |  |  |  |
